Results from US11053204B2, “Pyrimidinyloxy benzene derivatives as herbicides” (FMC Corporation, priority 2015, dated 2021).

How the values were obtained:
Assay type in all cases: in vivo
[1] = system: galium (catchweed bedstraw, Galium aparine); test: Test C preemergence, plant response rating
[2] = system: johnsongrass (Sorghum halepense); test: Test C preemergence, plant response rating
[3] = system: barnyardgrass (Echinochloa crus-galli); test: Test C preemergence, plant response rating; conditions: Preemergence
[4] = system: pigweed, palmer (palmer pigweed, Amaranthus palmeri); test: Test C preemergence, plant response rating
kochia (Kochia scoparia) = test: Test C preemergence, plant response rating
[5] = system: windgrass (Apera spica-venti); test: Test C preemergence, plant response rating
[6] = system: Canada thistle (Cirsium arvense); test: Test C postemergence, plant response rating; conditions: for Canada Thistle plant response rating: scale 0 to 100 (0 no effect, 100 complete control)
Method in brief: (§1)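 Both timings shared one formulation, a non-phytotoxic solvent mixture with surfactant, and a greenhouse period of 13 to 15 d. Preemergence used seeded loam/sand or silt loam soil, postemergence used 2 to 18 cm plants; visual ratings ran from 0 (no effect) to 100 (complete control).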

[7] = system: buckwheat, wild (wild buckwheat, Polygonum convolvulus); test: Test C postemergence, plant response rating; conditions: for Buckwheat, Wild plant response rating: scale 0 to 100 (0 no effect, 100 complete control)
Method in brief: as §1

[8] = system: field poppy (Papaver rhoeas); test: Test C postemergence, plant response rating; conditions: for Field Poppy plant response rating: scale 0 to 100 (0 no effect, 100 complete control)
Method in brief: as §1

[9] = system: field violet (Viola arvensis); test: Test C postemergence, plant response rating; conditions: for Field Violet plant response rating: scale 0 to 100 (0 no effect, 100 complete control)
Method in brief: as §1

[10] = system: geranium, cutleaf (cutleaf geranium, Geranium dissectum); test: Test C postemergence, plant response rating; conditions: for Geranium, Cutleaf plant response rating: scale 0 to 100 (0 no effect, 100 complete control)
Method in brief: as §1

[11] = system: johnsongrass (Sorghum halepense); test: Test C postemergence, plant response rating; conditions: for Johnsongrass plant response rating: scale 0 to 100 (0 no effect, 100 complete control)
Method in brief: as §1

[12] = system: nightshade (eastern black nightshade, Solanum ptycanthum); test: Test C postemergence, plant response rating; conditions: for Nightshade plant response rating: scale 0 to 100 (0 no effect, 100 complete control)
Method in brief: as §1

[13] = system: pigweed, palmer (palmer pigweed, Amaranthus palmeri); test: Test C postemergence, plant response rating; conditions: for Pigweed, Palmer plant response rating: scale 0 to 100 (0 no effect, 100 complete control)
Method in brief: as §1

[14] = system: speedwell (bird's-eye speedwell, Veronica persica); test: Test C postemergence, plant response rating; conditions: for Speedwell plant response rating: scale 0 to 100 (0 no effect, 100 complete control)
Method in brief: as §1

[15] = system: surinam grass (Brachiaria decumbens); test: Test C postemergence, plant response rating
Method in brief: as §1

[16] = system: wild mustard (Sinapis arvensis); test: Test C postemergence, plant response rating
Method in brief: as §1

[17] = system: wild poinsettia (Euphorbia heterophylla); test: Test C postemergence, plant response rating; conditions: for Poinsettia, Wild plant response rating: scale 0 to 100 (0 no effect, 100 complete control)
Method in brief: as §1

[18] = system: windgrass (Apera spica-venti); test: Test C postemergence, plant response rating
Method in brief: as §1

[19] = 125 g ai/ha, scale 0 to 100 (0 no effect, 100 complete control)

For `FC(F)(F)CCCc1c(Br)cccc1Oc1ncc(Cl)cn1` [Compound 89], the “Plant response rating, Galium” value ([1]; 31 g ai/ha, scale 0 to 100) was 0, the “Plant response rating, Galium” value ([1]; 62 g ai/ha, scale 0 to 100) was 0 and the “Plant response rating, Galium” value ([1]; 125 g ai/ha, scale of 0 to 100) was 0. The “Plant response rating, Johnsongrass” value ([2]; 31 g ai/ha, scale 0 to 100) was 40, the “Plant response rating, Johnsongrass” value ([2]; 62 g ai/ha, scale 0 to 100) was 30 and the “Plant response rating, Johnsongrass” value ([2]; 125 g ai/ha, scale of 0 to 100) was 60. For the same compound, the “Plant response rating, Barnyardgrass” value ([3]; 125 g ai/ha, scale of 0 to 100) was 100, the “Plant response rating, Barnyardgrass” value ([3]; 16 g ai/ha, scale 0 to 100) was 5 and the “Plant response rating, Barnyardgrass” value ([3]; 31 g ai/ha, scale 0 to 100) was 35. The “Plant response rating, Barnyardgrass” value ([3]; 62 g ai/ha, scale 0 to 100) was 90, the “Plant response rating, Pigweed, Palmer” value ([4]; 31 g ai/ha, scale 0 to 100) was 70 and the “Plant response rating, Pigweed, Palmer” value ([4]; 62 g ai/ha, scale 0 to 100) was 90. For the same compound, the “Plant response rating, Pigweed, Palmer” value ([4]; 125 g ai/ha, scale of 0 to 100) was 98, the “Plant response rating, Kochia” value (kochia (Kochia scoparia); 31 g ai/ha, scale 0 to 100) was 60 and the “Plant response rating, Kochia” value (kochia (Kochia scoparia); 62 g ai/ha, scale 0 to 100) was 85. The “Plant response rating, Kochia” value (kochia (Kochia scoparia); 125 g ai/ha, scale of 0 to 100) was 90, the “Plant response rating, Windgrass” value ([5]; 31 g ai/ha, scale 0 to 100) was 50 and the “Plant response rating, Windgrass” value ([5]; 62 g ai/ha, scale 0 to 100) was 65. The “Plant response rating, Windgrass” value ([5]; 125 g ai/ha, scale of 0 to 100) was 100, the “Plant response rating, Canada Thistle” value ([6]; 16 g ai/ha, scale of 0 to 100) was 80 and the “Plant response rating, Canada Thistle” value ([6]; 31 g ai/ha, scale 0 to 100) was 80. The “Canada Thistle plant response rating” value ([6]; 62 g ai/ha) was 85, the “Canada Thistle plant response rating” value ([6]; 125 g ai/ha) was 85 and the “Plant response rating, Buckwheat, Wild” value ([7]; 16 g ai/ha, scale of 0 to 100) was 70. The “Plant response rating, Buckwheat, Wild” value ([7]; 31 g ai/ha, scale 0 to 100) was 75, the “Buckwheat, Wild plant response rating” value ([7]; 62 g ai/ha) was 75 and the “Buckwheat, Wild plant response rating” value ([7]; 125 g ai/ha) was 85. The “Plant response rating, Field Poppy” value ([8]; 16 g ai/ha, scale of 0 to 100) was 90, the “Plant response rating, Field Poppy” value ([8]; 31 g ai/ha, scale 0 to 100) was 95 and the “Field Poppy plant response rating” value ([8]; 62 g ai/ha) was 100. The “Field Poppy plant response rating” value ([8]; 125 g ai/ha) was 100, the “Plant response rating, Field Violet” value ([9]; 16 g ai/ha, scale of 0 to 100) was 100 and the “Plant response rating, Field Violet” value ([9]; 31 g ai/ha, scale 0 to 100) was 100. The “Field Violet plant response rating” value ([9]; 62 g ai/ha) was 100, the “Field Violet plant response rating” value ([9]; 125 g ai/ha) was 100 and the “Plant response rating, Geranium, Cutleaf” value ([10]; 16 g ai/ha, scale of 0 to 100) was 35. The “Plant response rating, Geranium, Cutleaf” value ([10]; 31 g ai/ha, scale 0 to 100) was 35, the “Geranium, Cutleaf plant response rating” value ([10]; 62 g ai/ha) was 50 and the “Geranium, Cutleaf plant response rating” value ([10]; 125 g ai/ha) was 55. For the same compound, the “Plant response rating, Johnsongrass” value ([11]; 16 g ai/ha, scale of 0 to 100) was 5, the “Plant response rating, Johnsongrass” value ([11]; 31 g ai/ha, scale 0 to 100) was 10 and the “Johnsongrass plant response rating” value ([11]; 62 g ai/ha) was 10. The “Johnsongrass plant response rating” value ([11]; 125 g ai/ha) was 85, the “Plant response rating, Nightshade” value ([12]; 16 g ai/ha, scale of 0 to 100) was 75 and the “Plant response rating, Nightshade” value ([12]; 31 g ai/ha, scale 0 to 100) was 90. For the same compound, the “Nightshade plant response rating” value ([12]; 62 g ai/ha) was 95, the “Nightshade plant response rating” value ([12]; 125 g ai/ha) was 95 and the “Plant response rating, Pigweed, Palmer” value ([13]; 16 g ai/ha, scale of 0 to 100) was 55. For the same compound, the “Plant response rating, Pigweed, Palmer” value ([13]; 31 g ai/ha, scale 0 to 100) was 75, the “Pigweed, Palmer plant response rating” value ([13]; 62 g ai/ha) was 80 and the “Pigweed, Palmer plant response rating” value ([13]; 125 g ai/ha) was 85. For the same compound, the “Plant response rating, Speedwell” value ([14]; 16 g ai/ha, scale of 0 to 100) was 95, the “Plant response rating, Speedwell” value ([14]; 31 g ai/ha, scale 0 to 100) was 100 and the “Speedwell plant response rating” value ([14]; 62 g ai/ha) was 100. The “Speedwell plant response rating” value ([14]; 125 g ai/ha) was 100, the “Plant response rating, Surinam Grass” value ([15]; 16 g ai/ha, scale of 0 to 100) was 10 and the “Plant response rating, Surinam Grass” value ([15]; 31 g ai/ha, scale 0 to 100) was 10. For the same compound, the “Surinam Grass plant response rating” value [15, 19] was 20, the “Plant response rating, Mustard, Wild” value ([16]; 16 g ai/ha, scale of 0 to 100) was 100 and the “Mustard, Wild plant response rating” value ([16]; 62 g ai/ha, scale 0 to 100 (0 no effect, 100 complete control)) was 100. The “Plant response rating, Poinsettia, Wild” value ([17]; 16 g ai/ha, scale of 0 to 100) was 55, the “Plant response rating, Poinsettia, Wild” value ([17]; 31 g ai/ha, scale 0 to 100) was 60 and the “Poinsettia, Wild plant response rating” value ([17]; 62 g ai/ha) was 80. For the same compound, the “Poinsettia, Wild plant response rating” value ([17]; 125 g ai/ha) was 90, the “Plant response rating, Windgrass” value ([18]; 16 g ai/ha, scale of 0 to 100) was 10 and the “Plant response rating, Windgrass” value ([18]; 31 g ai/ha, scale 0 to 100) was 10. For the same compound, the “Windgrass plant response rating” value [18, 19] was 35.
